ChEMBL document CHEMBL3885861, “Open TG-GATES”

Species: Rattus norvegicus
Assay: Open TG-GATES - Regimen: Daily Repeat
Assay type: toxicity, organism-based, Sprague-Dawley
Set-up: regimen Daily Repeat, gender Male, age 6 weeks
Conditions: in vivo, po, 1000 mg/kg, route gavage, dose level High; for APTT / Bas / Eos / Fbg / Hb / Ht / Lym / MCH / MCHC / MCV / Mono / Neu / PT / Plat / RBC / Ret / WBC: tissue Blood; for KIDNEY_L / KIDNEY_R / KIDNEY_TOTAL: tissue Kidney; for LIVER: tissue Liver; for A/G / ALP / ALT / AST / BUN / CRE / Ca / Cl / DBIL / GLC / IP / K / LDH / Na / PL / RALB / TBIL / TC / TG / TP / gamma-GTP: tissue Plasma

SMILES: C[C@H]1O[C@H](O[C@H]2[C@H](O)[C@@H](O)[C@@H](O[C@H]3[C@H](O)[C@@H](O)C(O)O[C@@H]3CO)O[C@@H]2CO)[C@H](O)[C@@H](O)[C@@H]1N[C@H]1C=C(CO)[C@@H](O)[C@H](O)[C@H]1O (some centres not stated) [ACARBOSE]
- TERMINAL_BW (72 h, time 3 day): 230.8 g
- APTT (72 h, time 3 day): 17.8 s
- Bas (72 h, time 3 day): 0%
- Eos (72 h, time 3 day): 1%
- Fbg (72 h, time 3 day): 308.6 mg/dL
- Hb (72 h, time 3 day): 13.5 g/dL
- Ht (72 h, time 3 day): 40.6%
- Lym (72 h, time 3 day): 75.8%
- MCH (72 h, time 3 day): 21.2 pg
- MCHC (72 h, time 3 day): 33.3%
- MCV (72 h, time 3 day): 63.7 fL
- Mono (72 h, time 3 day): 2.8%
- Neu (72 h, time 3 day): 19.6%
- PT (72 h, time 3 day): 13 s
- Plat (72 h, time 3 day): 118.2 x10_4/uL
- RBC (72 h, time 3 day): 638.2 x10_4/ul
- Ret (72 h, time 3 day): 6.9%
- WBC (72 h, time 3 day): 90.6 x10_2/uL
- KIDNEY_L (72 h, time 3 day): 1 g
- KIDNEY_R (72 h, time 3 day): 1 g
- KIDNEY_TOTAL (72 h, time 3 day): 2 g
- LIVER (72 h, time 3 day): 10.9 g
- A/G (72 h, time 3 day): 0.9
- ALP (72 h, time 3 day): 1494.4 IU/L
- ALT (72 h, time 3 day): 46.8 IU/L
- AST (72 h, time 3 day): 74 IU/L
- BUN (72 h, time 3 day): 13.4 mg/dL
- CRE (72 h, time 3 day): 0.2 mg/dL
- Ca (72 h, time 3 day): 10.7 mg/dL
- Cl (72 h, time 3 day): 104.2 meq/L
- DBIL (72 h, time 3 day): 0.012 mg/dL
- GLC (72 h, time 3 day): 169.8 mg/dL
- IP (72 h, time 3 day): 7.7 mg/dL
- K (72 h, time 3 day): 3.9 meq/L
- LDH (72 h, time 3 day): 95.2 IU/L
- Na (72 h, time 3 day): 140 meq/L
- PL (72 h, time 3 day): 140 mg/dL
- RALB (72 h, time 3 day): 2.6 g/dL
- TBIL (72 h, time 3 day): 0.062 mg/dL
- TC (72 h, time 3 day): 75.2 mg/dL
- TG (72 h, time 3 day): 87 mg/dL
- TP (72 h, time 3 day): 5.5 g/dL
- gamma-GTP (72 h, time 3 day): 1 IU/L
- TERMINAL_BW ([…], time 7 day): 275.6 g
- TERMINAL_BW ([…], time 14 day): 312 g
- TERMINAL_BW ([…], time 28 day): 399.3 g
- APTT ([…], time 7 day): 16.9 s
- Bas ([…], time 7 day): 0%
- Eos ([…], time 7 day): 1%
- Fbg ([…], time 7 day): 302.6 mg/dL
- Hb ([…], time 7 day): 13.6 g/dL
- Ht ([…], time 7 day): 40.4%
- Lym ([…], time 7 day): 79.8%
- MCH ([…], time 7 day): 20.9 pg
- MCHC ([…], time 7 day): 33.7%
- MCV ([…], time 7 day): 62.2 fL
- Mono ([…], time 7 day): 2.2%
- Neu ([…], time 7 day): 16.2%
- PT ([…], time 7 day): 13.1 s
- Plat ([…], time 7 day): 119.8 x10_4/uL
- RBC ([…], time 7 day): 649.4 x10_4/ul
- Ret ([…], time 7 day): 6.1%
- WBC ([…], time 7 day): 120 x10_2/uL
- APTT ([…], time 14 day): 21 s
- Bas ([…], time 14 day): 0%
- Eos ([…], time 14 day): 1%
- Fbg ([…], time 14 day): 297 mg/dL
- Hb ([…], time 14 day): 14.7 g/dL
- Ht ([…], time 14 day): 43.8%
- Lym ([…], time 14 day): 79%
- MCH ([…], time 14 day): 20.6 pg
- MCHC ([…], time 14 day): 33.5%
- MCV ([…], time 14 day): 61.4 fL
- Mono ([…], time 14 day): 1.8%
- Neu ([…], time 14 day): 17.4%
- PT ([…], time 14 day): 13.3 s
- Plat ([…], time 14 day): 135 x10_4/uL
- RBC ([…], time 14 day): 713.4 x10_4/ul
- Ret ([…], time 14 day): 4.4%
- WBC ([…], time 14 day): 106.9 x10_2/uL
- APTT ([…], time 28 day): 17.7 s
- Bas ([…], time 28 day): 0.4%
- Eos ([…], time 28 day): 1.2%
- Fbg ([…], time 28 day): 283 mg/dL
- Hb ([…], time 28 day): 16.2 g/dL
- Ht ([…], time 28 day): 47.2%
- Lym ([…], time 28 day): 83.6%
- MCH ([…], time 28 day): 19.6 pg
- MCHC ([…], time 28 day): 34.4%
- MCV ([…], time 28 day): 57 fL
- Mono ([…], time 28 day): 2%
- Neu ([…], time 28 day): 12.6%
- PT ([…], time 28 day): 13.3 s
- Plat ([…], time 28 day): 102.8 x10_4/uL
- RBC ([…], time 28 day): 829 x10_4/ul
- Ret ([…], time 28 day): 2.2%
- WBC ([…], time 28 day): 110.1 x10_2/uL
- KIDNEY_L ([…], time 7 day): 1.1 g
- KIDNEY_R ([…], time 7 day): 1.1 g
- KIDNEY_TOTAL ([…], time 7 day): 2.2 g
- KIDNEY_L ([…], time 14 day): 1.2 g
- KIDNEY_R ([…], time 14 day): 1.2 g
- KIDNEY_TOTAL ([…], time 14 day): 2.4 g
- KIDNEY_L ([…], time 28 day): 1.4 g
- KIDNEY_R ([…], time 28 day): 1.3 g
- KIDNEY_TOTAL ([…], time 28 day): 2.7 g
- LIVER ([…], time 7 day): 13.9 g
- LIVER ([…], time 14 day): 13.4 g
- LIVER ([…], time 28 day): 16.6 g
- A/G ([…], time 7 day): 0.9
- ALP ([…], time 7 day): 1346.8 IU/L
- ALT ([…], time 7 day): 41.2 IU/L
- AST ([…], time 7 day): 66 IU/L
- BUN ([…], time 7 day): 16.6 mg/dL
- CRE ([…], time 7 day): 0.2 mg/dL
- Ca ([…], time 7 day): 10.9 mg/dL
- Cl ([…], time 7 day): 103.2 meq/L
- DBIL ([…], time 7 day): 0.012 mg/dL
- GLC ([…], time 7 day): 182.4 mg/dL
- IP ([…], time 7 day): 7.3 mg/dL
- K ([…], time 7 day): 3.9 meq/L
- LDH ([…], time 7 day): 88.4 IU/L
- Na ([…], time 7 day): 141.4 meq/L
- PL ([…], time 7 day): 140.2 mg/dL
- RALB ([…], time 7 day): 2.6 g/dL
- TBIL ([…], time 7 day): 0.048 mg/dL
- TC ([…], time 7 day): 66.4 mg/dL
- TG ([…], time 7 day): 134.8 mg/dL
- TP ([…], time 7 day): 5.7 g/dL
- gamma-GTP ([…], time 7 day): 1 IU/L
- A/G ([…], time 14 day): 0.8
- ALP ([…], time 14 day): 1516 IU/L
- ALT ([…], time 14 day): 40 IU/L
- AST ([…], time 14 day): 69.8 IU/L
- BUN ([…], time 14 day): 17.4 mg/dL
- CRE ([…], time 14 day): 0.3 mg/dL
- Ca ([…], time 14 day): 10.7 mg/dL
- Cl ([…], time 14 day): 105.2 meq/L
- DBIL ([…], time 14 day): 0.006 mg/dL
- GLC ([…], time 14 day): 184 mg/dL
- IP ([…], time 14 day): 7 mg/dL
- K ([…], time 14 day): 4.1 meq/L
- LDH ([…], time 14 day): 88.8 IU/L
- Na ([…], time 14 day): 142.2 meq/L
- PL ([…], time 14 day): 138.2 mg/dL
- RALB ([…], time 14 day): 2.7 g/dL
- TBIL ([…], time 14 day): 0.046 mg/dL
- TC ([…], time 14 day): 69.8 mg/dL
- TG ([…], time 14 day): 89 mg/dL
- TP ([…], time 14 day): 5.8 g/dL
- gamma-GTP ([…], time 14 day): 1 IU/L
- A/G ([…], time 28 day): 0.8
- ALP ([…], time 28 day): 1153.4 IU/L
- ALT ([…], time 28 day): 35.4 IU/L
- AST ([…], time 28 day): 63.6 IU/L
- BUN ([…], time 28 day): 18.4 mg/dL
- CRE ([…], time 28 day): 0.3 mg/dL
- Ca ([…], time 28 day): 10.8 mg/dL
- Cl ([…], time 28 day): 104.6 meq/L
- DBIL ([…], time 28 day): 0.014 mg/dL
- GLC ([…], time 28 day): 180.2 mg/dL
- IP ([…], time 28 day): 6.5 mg/dL
- K ([…], time 28 day): 4 meq/L
- LDH ([…], time 28 day): 72.6 IU/L
- Na ([…], time 28 day): 142 meq/L
- PL ([…], time 28 day): 151.8 mg/dL
- RALB ([…], time 28 day): 2.8 g/dL
- TBIL ([…], time 28 day): 0.058 mg/dL
- TC ([…], time 28 day): 73.4 mg/dL
- TG ([…], time 28 day): 166.2 mg/dL
- TP ([…], time 28 day): 6.2 g/dL
- gamma-GTP ([…], time 28 day): 1.2 IU/L
